Source: patent US7507727B2, “Substituted quinobenzoxazine analogs and methods of using thereof” (Cylene Pharmaceuticals, Inc., priority 2003, dated 2009)
Where two headings read alike, the source gives them in different places.

Key:
topoisomerase I = topoisomerase I (Homo sapiens, UniProt P11387); assay: Topoisomerase I inhibition; type: biochemical
CYP1A2 = CYP1A2 (Homo sapiens, UniProt P05177); assay: Cytochrome P450 inhibition assay; type: in vitro ADME
Description: (§1) Cytochrome P450 (CYP450) Inhibition Assay. […] The reactions were initiated by adding 100 μL of a pre-warmed enzyme/substrate solution to the reaction tubes. A zero time-point control reaction was prepared by adding 50 μL of acetonitrile to 100 μL of cofactor solution to inactivate the enzymes, then adding 100 μL of enzyme/substrate solution. A control reaction with no inhibitor was also prepared. After a suitable incubation at 37° C., the reactions were terminated by the addition of 50 μL of acetonitrile. The reactions were analyzed for the metabolite forms of the probe substrate using LC/MS/MS. Each assay was performed in duplicate.

CYP2C19 = CYP2C19 (Homo sapiens, UniProt P33261); assay: Cytochrome P450 inhibition assay; type: in vitro ADME
Description: as §1

CYP2C9 = CYP2C9 (Homo sapiens, UniProt P11712); assay: Cytochrome P450 inhibition assay; type: in vitro ADME
Description: as §1

CYP2D6 = CYP2D6 (Homo sapiens, UniProt P10635); assay: Cytochrome P450 inhibition assay; type: in vitro ADME
Description: as §1

CYP3A4 = CYP3A4 (Homo sapiens, UniProt P08684); assay: Cytochrome P450 inhibition assay; type: in vitro ADME
Description: as §1

[1] = Subacute study of intravenously administered CX-3543 in dogs (safety and tolerance); type: in vivo
Description: This study determines the safety and tolerance of CX-3543 at three dose levels administered intravenously once daily to beagle dogs for five consecutive days. Safety parameters were monitored through observation, clinical pathology, and microscopic histopathology assessments. Selected animals also underwent blood sample collection for pharmacokinetic/toxicokinetic evaluation. All animals were also assessed with ECG evaluations to detect heart rhythm and/or conduction abnormalities.
The study was conducted using three (3) test article and one (1) control article group. The control article was the solution (5% dextrose in water) used to dilute the test article prior to administration and was administered at the same volume as the high dose. The test article dosage levels for this study were approximately 12, 3.8, and 1.2 mg/kg. Test and control articles were administered once by intravenous (IV) infusion over approximately a one hour period on five consecutive days. Blood samples for test article blood level analysis was taken as follows (i.e., pk/tk sampling): approximately 1 mL of blood was taken from three male and three female dogs in the low dose group at approximately 20 minutes and 40 minutes from the start of the infusion, and then at the end of infusion (Time 0) and at 5, 10, 15, and 30 minutes, and 1, 2, 4, 8, 12, and 24 hours from the end of the infusion after the first and fifth doses. Also, prior to and immediately after Dose 1 and after Dose 5 for all animals, and for recovery animals prior to necropsy, approximately 5-10 second ECG tracings in a lead II configuration were obtained. Animals were terminated one (1) or 15 days after the last dose. […]
Clinical Pathology: After overnight fasting and prior to the first dose (baseline; all animals) and then prior to each necropsy, blood samples are taken for hematology and clinical chemistry. For hematology assays, blood collected at baseline and prior to necropsy (fasted) are analyzed for erythrocyte count, hematocrit, MCH, leukocyte count, differential WC, MCHC, hemoglobin, MCV, platelet count, PT, and APTT. […]

[2] = Pharmacokinetic/toxicokinetic evaluation in dogs; type: in vivo, beagle dogs; conditions: for Accumulation Ratio: Dose 5 to Dose 1 AUC(0-24), 1.2 mg/kg IV; for Tmax / AUC(0-t) / Cmax / half-life: iv, 1.2 mg/kg; for Tmax: median
Description: The study was conducted using three (3) test article and one (1) control article group. The control article was the solution (5% dextrose in water) used to dilute the test article prior to administration and was administered at the same volume as the high dose. The test article dosage levels for this study were approximately 12, 3.8, and 1.2 mg/kg. Test and control articles were administered once by intravenous (IV) infusion over approximately a one hour period on five consecutive days. Blood samples for test article blood level analysis was taken as follows (i.e., pk/tk sampling): approximately 1 mL of blood was taken from three male and three female dogs in the low dose group at approximately 20 minutes and 40 minutes from the start of the infusion, and then at the end of infusion (Time 0) and at 5, 10, 15, and 30 minutes, and 1, 2, 4, 8, 12, and 24 hours from the end of the infusion after the first and fifth doses. Also, prior to and immediately after Dose 1 and after Dose 5 for all animals, and for recovery animals prior to necropsy, approximately 5-10 second ECG tracings in a lead II configuration were obtained. Animals were terminated one (1) or 15 days after the last dose. Blood for hematology and clinical chemistry analysis was drawn pre-dose and prior to euthanasia at termination. Following euthanasia, a necropsy was performed to include collection of major organs for microscopic evaluation.
PK/TK: Blood samples for test article blood level analysis were taken. Approximately 1 mL of blood was taken from three males and three females in the low dose group at approximately 20 minutes and 40 minutes from the start of the infusion, and then at the end of infusion (Time 0) and at 5, 10, 15, and 30 minutes, and 1, 2, 4, 8, 12, and 24 hours from the end of the infusion after the first and fifth dose. Plasma (lithium heparin anticoagulant) samples were prepared and analyzed.

CYP3A4, sequence (P08684 whole entry): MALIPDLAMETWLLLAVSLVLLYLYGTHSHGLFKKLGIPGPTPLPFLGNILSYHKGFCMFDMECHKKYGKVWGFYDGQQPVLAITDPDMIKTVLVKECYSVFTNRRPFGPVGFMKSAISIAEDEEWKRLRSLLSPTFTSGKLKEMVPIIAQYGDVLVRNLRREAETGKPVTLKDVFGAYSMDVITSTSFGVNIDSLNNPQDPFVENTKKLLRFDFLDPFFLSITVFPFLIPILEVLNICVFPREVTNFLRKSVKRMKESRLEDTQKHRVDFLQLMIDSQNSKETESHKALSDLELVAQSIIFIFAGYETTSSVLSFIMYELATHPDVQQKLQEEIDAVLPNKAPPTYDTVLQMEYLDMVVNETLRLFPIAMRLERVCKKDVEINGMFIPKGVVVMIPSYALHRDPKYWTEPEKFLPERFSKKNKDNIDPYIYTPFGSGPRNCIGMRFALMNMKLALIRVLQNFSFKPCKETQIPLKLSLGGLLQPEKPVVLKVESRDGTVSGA
CYP2D6, sequence (P10635 whole entry): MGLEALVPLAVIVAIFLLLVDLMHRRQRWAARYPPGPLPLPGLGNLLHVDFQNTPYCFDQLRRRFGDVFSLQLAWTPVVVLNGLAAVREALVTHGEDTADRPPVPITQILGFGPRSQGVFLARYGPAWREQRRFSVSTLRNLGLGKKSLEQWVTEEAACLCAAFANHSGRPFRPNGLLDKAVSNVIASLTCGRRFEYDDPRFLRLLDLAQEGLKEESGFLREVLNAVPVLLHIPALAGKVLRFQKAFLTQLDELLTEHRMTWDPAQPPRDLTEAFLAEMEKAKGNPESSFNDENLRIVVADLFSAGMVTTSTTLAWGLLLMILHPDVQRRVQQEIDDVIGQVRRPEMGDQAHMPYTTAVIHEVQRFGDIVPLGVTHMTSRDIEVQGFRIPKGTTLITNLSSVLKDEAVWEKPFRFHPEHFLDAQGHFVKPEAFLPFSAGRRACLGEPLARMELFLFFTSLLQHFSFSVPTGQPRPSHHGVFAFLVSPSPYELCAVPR
CYP2C9, sequence (P11712 whole entry): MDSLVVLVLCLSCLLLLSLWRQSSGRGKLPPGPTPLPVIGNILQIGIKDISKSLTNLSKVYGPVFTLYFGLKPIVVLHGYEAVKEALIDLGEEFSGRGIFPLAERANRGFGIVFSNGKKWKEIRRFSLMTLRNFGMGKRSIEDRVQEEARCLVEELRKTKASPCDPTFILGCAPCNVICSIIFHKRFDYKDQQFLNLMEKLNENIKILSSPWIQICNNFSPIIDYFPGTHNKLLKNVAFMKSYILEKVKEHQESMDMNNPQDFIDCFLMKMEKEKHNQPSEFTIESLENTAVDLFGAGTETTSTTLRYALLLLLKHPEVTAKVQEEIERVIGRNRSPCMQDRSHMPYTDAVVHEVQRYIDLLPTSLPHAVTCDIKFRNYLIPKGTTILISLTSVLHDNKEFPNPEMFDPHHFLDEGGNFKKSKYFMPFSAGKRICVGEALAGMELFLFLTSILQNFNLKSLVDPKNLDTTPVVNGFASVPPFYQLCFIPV
CYP2C19, sequence (P33261 whole entry): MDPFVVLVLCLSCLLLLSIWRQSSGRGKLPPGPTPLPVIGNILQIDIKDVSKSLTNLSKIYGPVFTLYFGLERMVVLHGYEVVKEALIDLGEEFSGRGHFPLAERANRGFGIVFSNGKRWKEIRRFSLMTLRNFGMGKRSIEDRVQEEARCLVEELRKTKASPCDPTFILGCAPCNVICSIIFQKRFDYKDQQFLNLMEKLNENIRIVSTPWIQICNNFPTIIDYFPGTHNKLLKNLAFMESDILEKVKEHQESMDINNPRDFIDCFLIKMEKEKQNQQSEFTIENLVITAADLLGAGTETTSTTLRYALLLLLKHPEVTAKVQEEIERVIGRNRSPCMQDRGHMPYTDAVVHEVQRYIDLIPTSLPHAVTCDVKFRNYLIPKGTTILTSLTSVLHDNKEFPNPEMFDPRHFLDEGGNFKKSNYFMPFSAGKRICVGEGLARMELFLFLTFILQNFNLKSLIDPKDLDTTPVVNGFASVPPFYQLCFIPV
CYP1A2, sequence (P05177 whole entry): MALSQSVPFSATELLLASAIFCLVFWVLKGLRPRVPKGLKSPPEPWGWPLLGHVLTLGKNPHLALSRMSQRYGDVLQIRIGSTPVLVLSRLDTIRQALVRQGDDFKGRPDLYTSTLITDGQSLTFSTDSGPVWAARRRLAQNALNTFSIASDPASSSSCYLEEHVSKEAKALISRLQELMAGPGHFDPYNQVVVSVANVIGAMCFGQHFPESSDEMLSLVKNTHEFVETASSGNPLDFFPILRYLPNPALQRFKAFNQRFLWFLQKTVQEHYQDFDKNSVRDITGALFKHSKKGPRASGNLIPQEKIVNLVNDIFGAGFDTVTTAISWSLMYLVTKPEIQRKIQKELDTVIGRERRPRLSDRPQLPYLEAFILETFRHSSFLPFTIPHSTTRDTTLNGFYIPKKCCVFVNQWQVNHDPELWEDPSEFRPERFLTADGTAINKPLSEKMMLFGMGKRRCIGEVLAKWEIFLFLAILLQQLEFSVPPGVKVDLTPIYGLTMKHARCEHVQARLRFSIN
topoisomerase I, sequence (P11387 whole entry): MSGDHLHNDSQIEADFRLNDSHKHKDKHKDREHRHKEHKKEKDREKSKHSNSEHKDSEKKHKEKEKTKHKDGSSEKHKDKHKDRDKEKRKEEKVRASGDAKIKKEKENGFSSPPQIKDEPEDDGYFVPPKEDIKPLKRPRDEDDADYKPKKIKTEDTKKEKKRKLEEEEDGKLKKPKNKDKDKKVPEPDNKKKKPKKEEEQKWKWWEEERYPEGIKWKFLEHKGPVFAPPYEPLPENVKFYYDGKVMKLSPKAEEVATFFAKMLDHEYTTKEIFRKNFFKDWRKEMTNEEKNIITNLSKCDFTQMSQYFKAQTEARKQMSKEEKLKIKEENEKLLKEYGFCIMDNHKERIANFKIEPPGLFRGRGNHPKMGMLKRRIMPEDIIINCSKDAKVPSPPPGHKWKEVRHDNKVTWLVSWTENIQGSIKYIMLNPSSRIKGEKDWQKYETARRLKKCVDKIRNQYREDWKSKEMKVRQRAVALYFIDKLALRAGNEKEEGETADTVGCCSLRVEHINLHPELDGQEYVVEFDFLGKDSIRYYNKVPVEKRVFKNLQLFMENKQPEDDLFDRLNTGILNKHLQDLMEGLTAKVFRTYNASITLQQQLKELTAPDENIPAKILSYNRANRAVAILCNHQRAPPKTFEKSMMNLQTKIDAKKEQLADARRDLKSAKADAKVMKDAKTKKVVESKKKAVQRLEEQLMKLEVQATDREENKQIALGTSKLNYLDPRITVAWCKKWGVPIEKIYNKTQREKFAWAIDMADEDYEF

For `CN1CCCC1CCNC(=O)c1cn2c3c(c(N4CCC(c5cnccn5)C4)c(F)cc3c1=O)Oc1cc3ccccc3cc1-2` (stereo not shown) [CX-3543], the “inhibitory activity against topoisomerase I” value (topoisomerase I) was “not to be an inhibitor or poison”, the “inhibition of CYP1A2” value (CYP1A2) was “No significant inhibition” and the “inhibition of CYP2C19” value (CYP2C19) was “No significant inhibition”. The “inhibition of CYP2C9” value (CYP2C9) was “No significant inhibition”, the IC50 (CYP2C9; isoform 2C9, substrate Diclofenac) was over 10 µM and the “inhibition of CYP2D6” value (CYP2D6) was “No significant inhibition”. For the same compound, the IC50 (CYP2D6; isoform 2D6, substrate Dextromethorphan) was over 25 µM, the “range in which only minor and partial inhibition of CYP3A4 was evident” value (CYP3A4) was 1 to 3 µM and the IC50 (CYP3A4; isoform 3A4, substrate Midazolam) was 1.4 µM. For the same compound, the IC50 (CYP3A4; isoform 3A4, substrate Testosterone) was 3.3 µM, the mortality ([1]; dog, in vivo) was “no mortality” and the tolerance ([1]; dogs, five consecutive daily doses at 12, 3.8 or 1.2 mg/kg, IV one-hour infusion, except injection-site inflammation and necrosis) was “toxicologically well tolerated”. For the same compound, the ECG monitoring ([1]; dogs, pre and post doses 1 and 5) was “No abnormalities were detected”, the AUC(0-inf) ([2]; beagle, dog, plasma, female, 1.2 mg/kg IV infusion, Dose 1, read-out: Mean AUC(0-inf)) was 0.386 µg·h/mL and the AUC(0-inf) ([2]; beagle, dog, plasma, male, 1.2 mg/kg IV infusion, Dose 1, read-out: Mean AUC(0-inf)) was 0.317 µg·h/mL. The “Dose 5 to Dose 1 ratio for AUC(0-24)” value ([2]; female) was 1.1, the “AUC(0-inf)” value ([2]; female, Dose 1, 1.2 mg/kg IV, mean) was 0.3863 µg·h/mL and the “Accumulation Ratio” value ([2]; female) was 1.1. For the same compound, the Tmax ([2]; female, beagle, dog, plasma, Dose 1, 1.2 mg/kg IV) was 0.67 h, the Tmax ([2]; female, beagle, dog, plasma, Dose 5, 1.2 mg/kg IV) was 1 h and the AUC(0-t) ([2]; female, beagle, dog, plasma, female, 1.2 mg/kg IV infusion, Dose 1, read-out: Mean AUC(0-24)) was 0.381 µg·h/mL. For the same compound, the Cmax ([2]; female, beagle, dog, plasma, female, 1.2 mg/kg IV infusion, Dose 1, read-out: Mean Cmax) was 0.139 µg/mL, the half-life ([2]; female, beagle, dog, plasma, female, 1.2 mg/kg IV infusion, Dose 1, read-out: mean terminal half-life (converted)) was 3.8 h and the AUC(0-t) ([2]; female, beagle, dog, plasma, female, 1.2 mg/kg once daily, Dose 5, read-out: Mean AUC(0-24)) was 0.444 µg·h/mL. It also gave a Cmax ([2]; female, beagle, dog, plasma, female, 1.2 mg/kg once daily, Dose 5, read-out: mean Cmax) of 0.145 µg/mL, a Cmax ([2]; female, beagle, dog, plasma, female, Dose 1, 1.2 mg/kg IV once daily, mean, read-out: Cmax) of 0.139 µg/mL and a half-life ([2]; female, beagle, dog, plasma, female, Dose 1, 1.2 mg/kg IV, harmonic mean, read-out: T1/2 (converted)) of 3.8 h. For the same compound, the AUC(0-t) ([2]; female, beagle, dog, plasma, female, Dose 1, 1.2 mg/kg IV, mean, read-out: AUC(0-24)) was 0.381 µg·h/mL, the Cmax ([2]; female, beagle, dog, plasma, female, Dose 5, 1.2 mg/kg IV once daily for 5 days, mean, read-out: Cmax) was 0.145 µg/mL and the half-life ([2]; female, beagle, dog, plasma, female, Dose 5, 1.2 mg/kg IV, harmonic mean, read-out: T1/2 (converted)) was 5.2 h. The AUC(0-t) ([2]; female, beagle, dog, plasma, female, Dose 5, 1.2 mg/kg IV, mean, read-out: AUC(0-24)) was 0.444 µg·h/mL, the half-life ([2]; female, beagle, dog, plasma, female, Dose 5, read-out: mean terminal half-life (converted)) was 5.2 h and the “Dose 5 to Dose 1 ratio for AUC(0-24)” value ([2]; male) was 1.2. For the same compound, the “AUC(0-inf)” value ([2]; male, Dose 1, 1.2 mg/kg IV, mean) was 0.3169 µg·h/mL, the “Accumulation Ratio” value ([2]; male) was 1.2 and the Tmax ([2]; male, beagle, dog, plasma, Dose 1, 1.2 mg/kg IV) was 0.67 h. The Tmax ([2]; male, beagle, dog, plasma, Dose 5, 1.2 mg/kg IV) was 1 h, the AUC(0-t) ([2]; male, beagle, dog, plasma, male, 1.2 mg/kg IV infusion, Dose 1, read-out: Mean AUC(0-24)) was 0.314 µg·h/mL and the Cmax ([2]; male, beagle, dog, plasma, male, 1.2 mg/kg IV infusion, Dose 1, read-out: Mean Cmax) was 0.108 µg/mL. The half-life ([2]; male, beagle, dog, plasma, male, 1.2 mg/kg IV infusion, Dose 1, read-out: mean terminal half-life (converted)) was 3.2 h, the AUC(0-t) ([2]; male, beagle, dog, plasma, male, 1.2 mg/kg once daily, Dose 5, read-out: Mean AUC(0-24)) was 0.363 µg·h/mL and the Cmax ([2]; male, beagle, dog, plasma, male, 1.2 mg/kg once daily, Dose 5, read-out: mean Cmax) was 0.126 µg/mL. For the same compound, the Cmax ([2]; male, beagle, dog, plasma, male, Dose 1, 1.2 mg/kg IV once daily, mean, read-out: Cmax) was 0.108 µg/mL, the half-life ([2]; male, beagle, dog, plasma, male, Dose 1, 1.2 mg/kg IV, harmonic mean, read-out: T1/2 (converted)) was 3.2 h and the AUC(0-t) ([2]; male, beagle, dog, plasma, male, Dose 1, 1.2 mg/kg IV, mean, read-out: AUC(0-24)) was 0.314 µg·h/mL. The Cmax ([2]; male, beagle, dog, plasma, male, Dose 5, 1.2 mg/kg IV once daily for 5 days, mean, read-out: Cmax) was 0.126 µg/mL, the half-life ([2]; male, beagle, dog, plasma, male, Dose 5, 1.2 mg/kg IV, harmonic mean, read-out: T1/2 (converted)) was 5.2 h and the AUC(0-t) ([2]; male, beagle, dog, plasma, male, Dose 5, 1.2 mg/kg IV, mean, read-out: AUC(0-24)) was 0.363 µg·h/mL. For the same compound, the half-life ([2]; male, beagle, dog, plasma, male, Dose 5, read-out: mean terminal half-life (converted)) was 5.2 h.
